Source: patent US10947252B2, “Inhibitors of KEAP1-Nrf2 protein-protein interaction” (Janssen Pharmaceutica NV, priority 2018, dated 2021)

Experiments:
[1] = molecular target: Kelch domain of human KEAP1 (321-624 aa) (Homo sapiens (Human), UniProt Q14145); experiment: KEAP1 KELCH ThermoFluor binding assay; settings: KEAP Kelch […], 1,8-ANS, pH 7.0, average of results obtained, read-out: Tf Kd;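 note: Ligand-induced melting temperature shift of E. coli-expressed KEAP1 Kelch protein, Kd estimated from concentration-response curves of ΔTm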
Kelch domain of human KEAP1 (321-624 aa), sequence (Q14145 321-624): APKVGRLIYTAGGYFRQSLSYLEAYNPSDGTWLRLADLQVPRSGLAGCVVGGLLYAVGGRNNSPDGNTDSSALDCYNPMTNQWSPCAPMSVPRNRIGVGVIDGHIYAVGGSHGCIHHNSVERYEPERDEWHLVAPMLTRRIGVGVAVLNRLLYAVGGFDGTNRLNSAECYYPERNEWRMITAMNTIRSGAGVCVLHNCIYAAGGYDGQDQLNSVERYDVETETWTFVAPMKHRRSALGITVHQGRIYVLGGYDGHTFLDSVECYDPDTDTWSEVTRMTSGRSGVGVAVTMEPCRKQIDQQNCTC

[2] = test system: Glo-Response ARE-luc2P HEK293 cell line; experiment: ARE luciferase reporter cell-based assay; settings: Homo sapiens, HEK293, 24 h, average of results obtained;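 note: luciferase signal tracks Nrf2 activation of the ARE once compounds disrupt KEAP1-Nrf2 binding, read with One-Glo reagent, DMSO serving as low control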

SMILES	Kd [1] [nM]	EC50 [2] [nM]
Cc1ccc([C@@H](c2ccn3c(C(F)(F)F)nnc3c2C)C(C)(C)C(=O)O)cc1CN1C[C@@H]2CCCCN2c2ncc(C#N)cc2S1(=O)=O (single isomer, unassigned) [Example 424, (*S)-3-(3-(((*S)-3-cyano-5,5-dioxido-7,7a,8,9,10,11-hexahydro-6H-dipyrido[2,1-d:2′,3′-f][1,2,5]thiadiazepin-6-yl)methyl)-4-methylphenyl)-2,2-dimethyl-3-(8-methyl-3-(trifluoromethyl)-[1,2,4]triazolo[4,3-a]pyridin-7-yl)propanoic Acid]	< 1	1.65
Cc1ccc([C@H](c2ccn3c(C(F)(F)F)nnc3c2C)C(C)(C)C(=O)O)cc1CN1C[C@@H]2CCCCN2c2ncc(C#N)cc2S1(=O)=O (single isomer, unassigned) [Example 425, (*R)-3-(3-(((*S)-3-cyano-5,5-dioxido-7,7a,8,9,10,11-hexahydro-6H-dipyrido[2,1-d:2′,3′-f][1,2,5]thiadiazepin-6-yl)methyl)-4-methylphenyl)-2,2-dimethyl-3-(8-methyl-3-(trifluoromethyl)-[1,2,4]triazolo[4,3-a]pyridin-7-yl)propanoic Acid]	< 1	96.9
Cc1ccc([C@@H](c2ccc3c(nnn3CC3CC3)c2C)C(C)(C)C(=O)O)cc1CN1CC2(CCOCC2)Oc2ncccc2S1(=O)=O (single isomer, unassigned) [Example 428, (S*)-3-(1-(cyclopropylmethyl)-4-methyl-1H-benzo[d][1,2,3]triazol-5-yl)-3-(3-((1′,1′-dioxido-2,3,5,6-tetrahydrospiro[pyran-4,4′-pyrido[2,3-b][1,4,5]oxathiazepin]-2′(3′H)-yl)methyl)-4-methylphenyl)-2,2-dimethylpropanoic Acid]	< 1	399
Cc1ccc([C@@H](c2ccn3c(C(F)(F)F)nnc3c2C)C(C)(C)C(=O)O)cc1CN1CC(C)(C)Oc2ncccc2S1(=O)=O (single isomer, unassigned) [Example 430, (*S)-3-(3-((4,4-dimethyl-1,1-dioxido-3,4-dihydro-2H-pyrido[2,3-b][1,4,5]oxathiazepin-2-yl)methyl)-4-methylphenyl)-2,2-dimethyl-3-(8-methyl-3-(trifluoromethyl)-[1,2,4]triazolo[4,3-a]pyridin-7-yl)propanoic Acid]	7830	647
Cc1ccc([C@H](c2ccn3c(C(F)(F)F)nnc3c2C)C(C)(C)C(=O)O)cc1CN1CC(C)(C)Oc2ncccc2S1(=O)=O (single isomer, unassigned) [Example 431, (*R)-3-(3-((4,4-dimethyl-1,1-dioxido-3,4-dihydro-2H-pyrido[2,3-b][1,4,5]oxathiazepin-2-yl)methyl)-4-methylphenyl)-2,2-dimethyl-3-(8-methyl-3-(trifluoromethyl)-[1,2,4]triazolo[4,3-a]pyridin-7-yl)propanoic Acid]	< 1	2.84
Cc1ccc([C@H](CC(=O)O)c2ccn3c(C(F)(F)F)nnc3c2C)cc1CN1CC2(CCOCC2)Oc2ncccc2S1(=O)=O (single isomer, unassigned) [Example 432, (*S)-3-(3-((1′,1′-dioxido-2,3,5,6-tetrahydrospiro[pyran-4,4′-pyrido[2,3-b][1,4,5]oxathiazepin]-2′(3′H)-yl)methyl)-4-methylphenyl)-3-(8-methyl-3-(trifluoromethyl)-[1,2,4]triazolo[4,3-a]pyridin-7-yl)propanoic Acid]	< 1	103
Cc1cc2cc([C@@H](CC(=O)O)c3ccc(C)c(CN4C[C@H]5CCCN5c5ncccc5S4(=O)=O)c3)n(C)c2nn1 (single isomer, unassigned) [Example 435, (*S)-3-(3,7-Dimethyl-7H-pyrrolo[2,3-c]pyridazin-6-yl)-3-(3-(((R)-5,5-dioxido-7a,8,9,10-tetrahydropyrido[2,3-f]pyrrolo[2,1-d][1,2,5]thiadiazepin-6(7H)-yl)methyl)-4-methylphenyl)propanoic Acid]	119	> 20000
Cc1cc2cc([C@H](CC(=O)O)c3ccc(C)c(CN4C[C@H]5CCCN5c5ncccc5S4(=O)=O)c3)n(C)c2nn1 (single isomer, unassigned) [Example 436, (*R)-3-(3,7-Dimethyl-7H-pyrrolo[2,3-c]pyridazin-6-yl)-3-(3-(((R)-5,5-dioxido-7a,8,9,10-tetrahydropyrido[2,3-f]pyrrolo[2,1-d][1,2,5]thiadiazepin-6(7H)-yl)methyl)-4-methylphenyl)propanoic Acid]	< 1	2230
Cc1cc2cc([C@@H](CC(=O)O)c3ccc(C)c(CN4C[C@@H]5CCCN5c5ncccc5S4(=O)=O)c3)n(C)c2nn1 (single isomer, unassigned) [Example 438, (*S)-3-(3,7-Dimethyl-7H-pyrrolo[2,3-c]pyridazin-6-yl)-3-(3-(((S)-5,5-dioxido-7a,8,9,10-tetrahydropyrido[2,3-f]pyrrolo[2,1-d][1,2,5]thiadiazepin-6(7H)-yl)methyl)-4-methylphenyl)propanoic Acid]	234	> 20000
Cc1cc2cc([C@H](CC(=O)O)c3ccc(C)c(CN4C[C@@H]5CCCN5c5ncccc5S4(=O)=O)c3)n(C)c2nn1 (single isomer, unassigned) [Example 439, (*R)-3-(3,7-Dimethyl-7H-pyrrolo[2,3-c]pyridazin-6-yl)-3-(3-(((S)-5,5-dioxido-7a,8,9,10-tetrahydropyrido[2,3-f]pyrrolo[2,1-d][1,2,5]thiadiazepin-6(7H)-yl)methyl)-4-methylphenyl)propanoic Acid]	1.26	2440
Cc1cc2cc([C@@H](CC(=O)O)c3ccc(C)c(CN4C[C@@H]5CCCCN5c5ncccc5S4(=O)=O)c3)n(C)c2nn1 (single isomer, unassigned) [Example 441, (*S)-3-(3,7-Dimethyl-7H-pyrrolo[2,3-c]pyridazin-6-yl)-3-(3-(((*S)-5,5-dioxido-7,7a,8,9,10,11-hexahydro-6H-dipyrido[2,1-d:2′,3′-f][1,2,5]thiadiazepin-6-yl)methyl)-4-methylphenyl)propanoic Acid]	60.3	> 20000
Cc1cc2cc([C@H](CC(=O)O)c3ccc(C)c(CN4C[C@@H]5CCCCN5c5ncccc5S4(=O)=O)c3)n(C)c2nn1 (single isomer, unassigned) [Example 442, (*R)-3-(3,7-Dimethyl-7H-pyrrolo[2,3-c]pyridazin-6-yl)-3-(3-(((*S)-5,5-dioxido-7,7a,8,9,10,11-hexahydro-6H-dipyrido[2,1-d:2′,3′-f][1,2,5]thiadiazepin-6-yl)methyl)-4-methylphenyl)propanoic Acid]	< 1	553
Cc1cc2cc([C@@H](CC(=O)O)c3ccc(C)c(CN4C[C@H]5CCCCN5c5ncccc5S4(=O)=O)c3)n(C)c2nn1 (single isomer, unassigned) [Example 444, (*S)-3-(3,7-Dimethyl-7H-pyrrolo[2,3-c]pyridazin-6-yl)-3-(3-(((*R)-5,5-dioxido-7,7a,8,9,10,11-hexahydro-6H-dipyrido[2,1-d:2′,3′-f][1,2,5]thiadiazepin-6-yl)methyl)-4-methylphenyl)propanoic Acid]	21.3	> 20000
